Data taken from patent publication US20230322861A1, “SYNTHETIC PEPTIDES FOR DISSOLVING TAU INCLUSIONS” (The Trustees of Princeton University, priority 2022, published 2023).

B1: Human SRRM2 Isoform 1 Fragment 26 (F26) WT (peptide)
chain: SSSSSSGSSSSDSEGSSLPVQPEVALKRVPSPTPAPKEAVREGRPPEPTPAKRKRRSSSSSSSSSSSSSSSSSSSSSSSS
notes: 5, mCherry-tagged

Columns and labels:
Format in all cases: cell-based
[1] = system: tau inclusions; assay: co-expression of fluorescent-tagged tau inclusions with mCherry-tagged synthetic peptide sequences; probability of cells containing a tau inclusion; details: at different concentrations of co-expressed peptide-mCherry fusion; FIGS. 2A-2K
Protocol: Various peptide sequences were tested by co-expressing fluorescent-tagged tau inclusions with mCherry-tagged synthetic peptide sequences, and quantifying a probability of cells containing a tau inclusion at different synthetic peptide concentrations.

[2] = system: tau inclusions; assay: as above; details: cells expressing peptide-mCherry fusion; FIGS. 2H, 2J, 2K
[3] = system: tau aggregate-containing cells (strain DS18); assay: curing of tau aggregates in colonies of tau aggregate-containing cells expressing mCherry or SubF-mCherry; details: expressed for a week, passaged at low density, imaged after 7 days, 14 fields of view; representative field FIGS. 3A-3B
Protocol: FIGS. 3A-3B are images of representative fields of view of mCherry (3A) or SubF-mCherry (3B) in tau aggregate-containing cell colonies.
As an example of this, mCherry or SubF-mCherry were expressed in tau aggregate-containing cells (strain DS18) for a week. Cells were then passaged into a new dish at low density. After 7 days, 14 fields of view were imaged for each condition, and the fraction of colonies cured of tau aggregates was determined.

Row | Molecule | probability of cells containing a tau inclusion [1] | tau-negative aggregates (aggregates formed absent the presence of tau) [2] | colonies with / cured of tau aggregates [3]
1 | CK2 (SDSDS) (ASSSDSDSSSSSSSSSSSSSSSSSSSSSSSSSSSSSSSSSSSSSSSSSSSSA) [#11, 14, mCherry-tagged] | reduces tau inclusion | without forming tau-negative aggregates | 
2 | S52 (Pure Polyserine) [#8] | no decrease in tau inclusions was seen | tau-negative aggregates were noted | 
3 | SR Kinase (SRSRS) (ARSRSRSSSSSSSSSSSSSSSSSSSSSSSSSSSSSSSSSSSSSSSSSSSSSA) [#10, 13, mCherry-tagged] | reducing tau inclusions, relatively rapidly | tau-negative aggregates were noted | 
4 | Sub F-mCherry: SubF sequence (KRKRR followed by 42 serines, SEQ ID NO. 3) fused to mCherry (KRKRRSSSSSSSSSSSSSSSSSSSSSSSSSSSSSSSSSSSSSSSSSS) |  |  | many of the 27 colonies lack aggregates in all cells
5 | SubF Scramble (SSSRSSSSSKSSSSSSASSSSPSSASSSSSRSSSSPSSSSSSKSSSSSRSSS) [#9, 12, mCherry-tagged] | no reduction in tau inclusions was seen |  | 
6 | B1 | reduce the probability of tau inclusions to zero |  | 
